In article PMC8246065 (The EMBO Journal, 2021):

Tested on: BMDMs
Assay: Il6 expression and multiplex cytokine production in WT, Nod1/2 KO and Rip2 KO BMDMs
Type: cell-based, mice
Conditions: S1P 10 µM with digitonin (2.5 µg/ml); WT vs Nod1/2 KO and Rip2 KO
Protocol: The human monocytic cell line THP‐1 was obtained from the American Type Culture Collection (ATCC, TIB‐202) and maintained in RPMI 1640 (Gibco, 31870) with 10% (v:v) heat‐inactivated fetal bovine serum (FBS, Sigma‐Aldrich, F0804), 1 mM sodium pyruvate (Gibco, 11360070), 2 mM L‐glutamine (Gibco, 25030081), 10 mM HEPES buffer (Gibco, 15630080), pH 7.2‐7.5, and 50 µM 2‐mercaptoethanol (Gibco, 31350010). To differentiate THP‐1 into macrophage‐like cells, THP‐1 cells were stimulated with 50 ng/ml phorbol 12‐myristate 13‐acetate (Sigma‐Aldrich, P8139) for 24 h and then incubated with fresh medium for another 48 h. HEK293T WT and HEK293T NOD1/2 dKO cells were generated as described (Dagil et al, 2016). […]
Total RNA was isolated with TRIzol reagent, as described by the manufacturer (Invitrogen). […] Gene expression was normalized to glyceraldehyde‐3‐phosphate dehydrogenase (GAPDH), and fold changes were calculated against corresponding controls. qRT–PCR data were representative of at least three independent experiments, with at least 2 technical replicates per experiment. […]

SMILES: CCCCCCCCCCCCC/C=C/[C@@H](O)[C@@H](N)COP(=O)(O)O [S1P, sphingosine‐1‐phosphate]
- Il6 expression and production of IL6, CXCL2, CCL5 and IL16: markedly impaired in Nod1/2 KO and Rip2 KO BMDMs
